Assay results: ChEMBL document CHEMBL5034038, “Zanamivir-Cholesterol Conjugate: A Long-Acting Neuraminidase Inhibitor with Potent Efficacy against Drug-Resistant Influenza Viruses” (J Med Chem, 2021)
Active and inactive are the calls of the source. No cut-off for these calls is given here.

How the values were obtained:
[1] = tested on: Influenza A virus; assay: Protection against Influenza A virus (A/California/07/2009 (H1NI)) harboring NA H275Y mutant infected in Balb/c mouse at 4.2 to 8.4 uM/kg, IV administered once daily for 7 days starting from 24 hrs prior to viral infection; type: functional; conditions: dose 4.2-8.4 µM/Kg
[2] = tested on: Influenza A virus; assay: Antiviral activity against Influenza A virus (A/Moscow/10/99 (H3N2)) harboring NA E119V mutant infected in dog MDCK cells assessed as reduction in virus replication incubated for 72 hrs by CCK8 assay; type: functional, organism-based
[3] = tested on: Influenza A virus; assay: Protection against Influenza A virus (A/California/07/2009 (H1NI)) harboring NA H275Y mutant infected in Balb/c mouse at 8.4 uM/kg, IV administered once daily for 7 days starting from 24 hrs post to viral infection; type: functional
[4] = tested on: Influenza A virus; assay: Antiviral activity against Influenza A virus (A/California/07/2009 (H1NI)) harboring NA H275Y mutant infected in dog MDCK cells assessed as reduction in virus replication incubated for 72 hrs by CCK8 assay; type: functional, organism-based, A/California/07/2009(H1N1)
[5] = Inhibition of Influenza A virus (A/California/07/2009 (H1N1)) neuraminidase N1 H275Y mutant using MUNANA as substrate preincubated for 30 mins followed by substrate addition by fluorescence method
[6] = Inhibition of Influenza A virus (A/Moscow/10/99 (H3N2)) neuraminidase N2 E119V variant using MUNANA as substrate preincubated for 30 mins followed by substrate addition by fluorescence method

In the case of CCC(CC)O[C@@H]1C=C(C(=O)O)C[C@H](N)[C@H]1NC(C)=O [OSELTAMIVIR CARBOXYLATE], the Activity ([1]; A/California/07/2009(H1N1), time 7.0 day) is reported as “inactive”, the EC50 ([2]; read-out: EC50) is reported as 30200 nM and the Activity ([3]; A/Puerto Rico/8/1934(H1N1), time 7.0 day) is reported as “inactive”. The EC50 [4] was 2610 nM, the IC50 [5] was 938 nM and the IC50 [6] was 22.4 nM.

CC(=O)N[C@H]1[C@H]([C@H](O)[C@H](O)CO)OC(C(=O)O)=C[C@@H]1NC(=N)N [ZANAMIVIR] showed an EC50 [2] of 5240 nM, an EC50 [4] of 26.6 nM and an IC50 [5] of 1 nM. The IC50 [6] was 10 nM.

Work on CC(=O)N[C@H]1[C@H]([C@H](OC(=O)NCCOCCOCCOCc2cn(CCCCCCO[C@H]3CC[C@@]4(C)C(=CC[C@H]5[C@@H]6CC[C@H]([C@H](C)CCCC(C)C)[C@@]6(C)CC[C@@H]54)C3)nn2)[C@H](O)CO)OC(C(=O)O)=C[C@@H]1NC(=N)N yielded an EC50 ([2]; read-out: EC50) of 4810 nM, an EC50 [4] of 653 nM and an IC50 [5] of 127 nM. For the same molecule, the IC50 [6] was 773 nM.

Molecule CC(=O)N[C@H]1[C@H]([C@H](OC(=O)NCCOCCOCCOCCOCCOCCOCCOCCOCCOCCOCCOCCOCc2cn(CCCCCCO[C@H]3CC[C@@]4(C)C(=CC[C@H]5[C@@H]6CC[C@H]([C@H](C)CCCC(C)C)[C@@]6(C)CC[C@@H]54)C3)nn2)[C@H](O)CO)OC(C(=O)O)=C[C@@H]1NC(=N)N has an EC50 ([2]; read-out: EC50) of 8260 nM, an EC50 [4] of 2600 nM and an IC50 [5] of 573 nM. The IC50 [6] was 8580 nM.

In the case of CC(=O)N[C@H]1[C@H]([C@H](OC(=O)NCCOCCOCCOCCOCCOCCOCc2cn(CCCCCCO[C@H]3CC[C@@]4(C)C(=CC[C@H]5[C@@H]6CC[C@H]([C@H](C)CCCC(C)C)[C@@]6(C)CC[C@@H]54)C3)nn2)[C@H](O)CO)OC(C(=O)O)=C[C@@H]1NC(=N)N, the Activity ([1]; time 7 day, at 4.2 to 8.4 µmol/kg) is reported as 100%, the EC50 ([2]; read-out: EC50) is reported as 422 nM and the Activity ([3]; time 7 day, at 8.4 µmol/kg) is reported as 100%. It also gave an EC50 [4] of 22 nM, an IC50 [5] of 22 nM and an IC50 [6] of 162 nM.

Molecule CCCCCCn1cc(COCCOCCOCCOCCOCCOCCNC(=O)O[C@@H]([C@@H]2OC(C(=O)O)=C[C@H](NC(=N)N)[C@H]2NC(C)=O)[C@H](O)CO)nn1 has an EC50 ([2]; read-out: EC50) of 4730 nM, an EC50 [4] of 612 nM and an IC50 [5] of 30.3 nM. The IC50 [6] was 296 nM.
